Assay results reported in BindingDB's records for patent US11739093 (Revolution Medicines, 2023).

Target: T1, Tyrosine-protein phosphatase non-receptor type 11 (Homo sapiens, UniProt Q06124)
T1 sequence (Q06124 whole entry): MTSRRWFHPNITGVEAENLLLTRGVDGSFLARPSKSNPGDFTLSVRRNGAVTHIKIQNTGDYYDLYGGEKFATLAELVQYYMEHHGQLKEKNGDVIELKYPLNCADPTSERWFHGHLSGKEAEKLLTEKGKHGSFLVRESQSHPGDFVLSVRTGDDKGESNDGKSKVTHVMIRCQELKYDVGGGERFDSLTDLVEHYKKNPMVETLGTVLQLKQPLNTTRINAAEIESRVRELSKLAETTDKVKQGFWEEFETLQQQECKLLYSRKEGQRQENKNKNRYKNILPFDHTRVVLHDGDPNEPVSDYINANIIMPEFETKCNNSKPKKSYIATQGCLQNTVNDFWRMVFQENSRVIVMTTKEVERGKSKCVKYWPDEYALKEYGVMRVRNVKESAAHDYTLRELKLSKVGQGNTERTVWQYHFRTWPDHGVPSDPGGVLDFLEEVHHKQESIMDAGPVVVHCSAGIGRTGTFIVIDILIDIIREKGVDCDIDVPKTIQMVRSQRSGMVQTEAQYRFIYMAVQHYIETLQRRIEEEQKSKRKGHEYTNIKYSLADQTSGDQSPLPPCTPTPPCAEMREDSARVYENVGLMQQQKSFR
Assay: SHP2 Allosteric Inhibition Assay
Experimental: The phosphatase reactions were performed at room temperature in 96-well black polystyrene plate, flat bottom, non-binding surface (Corning, Cat #3650) using a final reaction volume of 100 μL and the following assay buffer conditions: 50 mM HEPES, pH 7.2, 100 mM NaCl, 0.5 mM EDTA, 0.05% P-20, 1 mM DTT. The inhibition of SHP2 by compounds of the disclosure (concentrations varying from 0.00005-10 μM) was monitored using an assay in which 0.2 nM of SHP2 was incubated with 0.5 μM of Activating Peptide 1 (sequence: H2 N-LN(pY)IDLDLV(dPEG8)LST(pY)ASINFQK-amide) or Activating Peptide 2 (sequence: H2 N-LN(pY)AQLWHA(dPEG8)LTI(pY)ATIRRF-amide). After 30-60- minutes incubation at 25° C., the surrogate substrate DiFMUP (Invitrogen, Cat #D6567) was added to the reaction and activity was determined by a kinetic read using a microplate reader (Envision, Perkin-Elmer or Spectramax M5, Molecular Devices). The excitation and emission wavelengths were 340 nm and 450 nm, respectively. Initial rates were determined from a linear fit of the data, and the inhibitor dose response curves were analyzed using normalized IC50 regression curve fitting with control-based normalization.

IC50: 0.034 µM
Compound: Cc1nc(N2CCC3(CC2)CO[C@@H](C)[C@H]3N)c2ccnn2c1Sc1ccnc(N)c1Cl [US11739093, Compound 3]
